This passage reports IC50 results from patent US20250026721A1, “COMPOUNDS AND METHODS FOR MODULATING RAS-PI3K” (Vividion Therapeutics, Inc., priority 2023, published 2025).

SMILES strings stand for the structures.

In one assay the target is T1, PIK3CA_C242 (Homo sapiens, UniProt P42336).
T1 construct: endogenous in cells; host or cells: Jurkat cell lysate
In words: Proteomic TE50 (IA-DTB / TMT mass spectrometry) in Jurkat cell lysate. The class given is binding. The note with it: 1 hour at rt, 7-point dose response. The method, then:
Example 4. Proteomic TE50 In vitro TE50 values for PIK3CA_C242 were obtained by treating 500 μg of cell lysate generated from Jurkat cells with DMSO or compound for 1 hour at rt followed by the addition of 200 μM desthiobiotin polyethyleneoxide iodoacetamide (IA-DTB) in DMSO for one hour at rt. Compounds were serially diluted 1:5 for a total of 7 points in order to generate dose response curves. Samples were then precipitated by the addition of 8× ice cold acetone and incubated at -80° C. for two hours. Protein was then pelleted by centrifugation (4,200 RPM, 45 min, 4° C.). The pelleted material was resuspended in 9M urea, 50 mM ammonium bicarbonate and proteins were reduced and alkylated by the addition of DTT and iodoacetamide (10 and 30 mM, respectively). Following reduction and alkylation, samples were exchanged into 2M urea (Zeba spin desalting plates, Thermo Fisher) and digested with Trypsin. IA-DTB labeled peptides were isolated with streptavidin agarose resin. Enriched peptides were eluted by the addition of 50% acetonitrile (ACN) 0.1% formic acid (FA) and dried in a SpeedVac vacuum concentrator. […] Reactions were quenched by the addition of 6.5 μL of 5% hydroxylamine. Samples were then combined and desalted on a Evolute express ABN plate (Biotage, 600-0010-PX01). Targeted TMT measurements were collected using an Orbitrap Lumos Tribrid Mass Spectrometer (Thermo Scientific) coupled to an UltiMate 3000 Series Rapid Separation LC system and autosampler (Thermo Scientific Dionex). Peptides were eluted onto a custom C18 capillary analytical column (75-μm inner diameter fused silica, packed with Acclaim PepMap C18 resin; Thermo Scientific) using an Acclaim PepMap 100 (Thermo 164535) loading column, and separated at a flow rate of […]. Data were acquired using a specific MS3-based TMT method targeting the peptide containing […], +2 charge state) where MS2 peptide fragmentation is triggered upon detection of the peptide precursor ion. Subsequent MS3 analysis was then performed using pre-selected peptide fragment ions that were isolated for fragmentation using synchronous precursor selection. RAW files were converted to MZXML format and searched with the SEQUEST algorithm using the […] software package. TMT quantitation was performed with a filter requiring at least ten summed signal-to-noise (S/N) for control channels. TE50 values were calculated from 7-point dose response curves created using the reporter ion S/N for each channel.

The target of the next assay is T2, PIK3CA (Homo sapiens, UniProt P42336).
T2 construct: endogenous in cells; host or cells: Jurkat cell lysate
T2 sequence (P42336 whole entry): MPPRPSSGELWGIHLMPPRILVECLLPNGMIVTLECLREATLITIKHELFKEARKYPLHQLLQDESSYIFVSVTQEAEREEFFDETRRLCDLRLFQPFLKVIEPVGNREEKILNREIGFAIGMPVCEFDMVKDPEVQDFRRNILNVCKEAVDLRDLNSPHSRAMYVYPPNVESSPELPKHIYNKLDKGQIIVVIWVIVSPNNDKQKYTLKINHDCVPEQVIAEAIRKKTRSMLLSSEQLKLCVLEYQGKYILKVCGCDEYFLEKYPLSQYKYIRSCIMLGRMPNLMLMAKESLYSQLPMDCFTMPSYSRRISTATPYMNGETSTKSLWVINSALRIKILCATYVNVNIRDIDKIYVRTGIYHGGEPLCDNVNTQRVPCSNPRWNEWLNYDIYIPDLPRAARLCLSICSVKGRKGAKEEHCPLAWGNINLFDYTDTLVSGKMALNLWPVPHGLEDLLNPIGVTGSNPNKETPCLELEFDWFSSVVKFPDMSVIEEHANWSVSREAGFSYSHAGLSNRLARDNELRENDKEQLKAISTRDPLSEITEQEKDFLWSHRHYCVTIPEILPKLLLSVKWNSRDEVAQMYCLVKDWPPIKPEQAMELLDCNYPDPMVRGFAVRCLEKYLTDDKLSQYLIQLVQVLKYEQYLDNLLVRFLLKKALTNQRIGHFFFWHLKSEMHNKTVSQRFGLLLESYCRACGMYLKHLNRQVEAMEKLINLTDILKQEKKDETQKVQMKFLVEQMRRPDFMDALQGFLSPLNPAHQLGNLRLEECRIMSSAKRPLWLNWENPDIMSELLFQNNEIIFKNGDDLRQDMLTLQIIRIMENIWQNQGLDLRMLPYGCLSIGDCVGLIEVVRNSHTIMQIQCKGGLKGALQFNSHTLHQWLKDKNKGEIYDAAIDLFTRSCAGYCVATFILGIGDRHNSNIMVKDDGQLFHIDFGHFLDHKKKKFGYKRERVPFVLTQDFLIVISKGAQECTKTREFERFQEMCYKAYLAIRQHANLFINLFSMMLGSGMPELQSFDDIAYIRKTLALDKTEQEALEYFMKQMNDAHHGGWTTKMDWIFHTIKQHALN
T2 sequence (P27986 whole entry partner): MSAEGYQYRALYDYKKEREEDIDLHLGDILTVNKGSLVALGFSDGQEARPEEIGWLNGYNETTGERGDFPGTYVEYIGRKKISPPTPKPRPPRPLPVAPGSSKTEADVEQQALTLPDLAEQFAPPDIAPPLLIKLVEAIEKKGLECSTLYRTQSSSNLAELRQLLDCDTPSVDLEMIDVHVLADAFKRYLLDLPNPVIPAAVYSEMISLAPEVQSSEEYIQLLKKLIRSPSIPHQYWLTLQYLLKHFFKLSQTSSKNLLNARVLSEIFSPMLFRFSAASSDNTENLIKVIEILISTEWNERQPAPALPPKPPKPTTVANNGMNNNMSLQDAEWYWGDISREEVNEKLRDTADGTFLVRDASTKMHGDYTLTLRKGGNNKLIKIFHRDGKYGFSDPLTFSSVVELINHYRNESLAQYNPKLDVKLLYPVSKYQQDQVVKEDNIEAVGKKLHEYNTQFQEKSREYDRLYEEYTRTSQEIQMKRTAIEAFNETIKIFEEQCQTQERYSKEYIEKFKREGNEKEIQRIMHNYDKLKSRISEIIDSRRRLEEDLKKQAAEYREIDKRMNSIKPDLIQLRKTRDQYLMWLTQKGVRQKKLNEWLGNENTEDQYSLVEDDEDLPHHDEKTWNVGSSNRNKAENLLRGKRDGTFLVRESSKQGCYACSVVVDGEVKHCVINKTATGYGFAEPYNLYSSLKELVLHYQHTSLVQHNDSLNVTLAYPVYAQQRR
As to the kind of experiment: In vitro ELISA target engagement assay for PIK3CA in Jurkat cellular lysate (competition with PIK3CA Biotin Probe). The note with it: 1 hour at rt, then 500 nM PIK3CA Biotin Probe, read-out: Elisa Target Engagement Assay (TE50). The class given is binding. Put shortly: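 Competition format in Jurkat lysate: compound (serial dilutions, top 200 μM) for 1 h at rt, then 500 nM final biotinylated PIK3CA probe for 1 h at rt. Sandwich ELISA with capture antibody and Neutravidin-HRP luminescence read-out measured probe-labelled PIK3CA, giving TE50.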
On the technique in general: In an ELISA, binding on a coated surface is turned into a signal by an enzyme label.

T1 sequence (P42336 whole entry): as the sequence (P42336 whole entry) above
T1 sequence (P27986 whole entry partner): as the sequence (P27986 whole entry partner) above

As for `COc1ccc(S(=O)(=O)N2CCC(F)(C(=O)N[C@H](C)/C=C\S(C)(=O)=O)CC2)c(-c2cc(F)ccc2Cl)c1` [Compound 28, (R,Z)-1-((2′-chloro-5′-fluoro-5-methoxy-[1,1′-biphenyl]-2-yl)sulfonyl)-4-fluoro-N-(4-(methylsulfonyl)but-3-en-2-yl)piperidine-4-carboxamide], the IC50 at PIK3CA_C242 worked out at 630 nM. Still for that read-out and setting: for `C[C@@H](/C=C\S(C)(=O)=O)NC(=O)C1(F)CCN(S(=O)(=O)c2ccc(N(C)C)cc2-c2ccccc2Cl)CC1` [Compound 89, (S,Z)-1-((2′-chloro-5-(dimethylamino)-[1,1′-biphenyl]-2-yl)sulfonyl)-4-fluoro-N-(4-(methylsulfonyl)but-3-en-2-yl)piperidine-4-carboxamide] the value was 47 nM. Still for that read-out and setting: in the case of `COc1cc(-c2ccccc2Cl)c(S(=O)(=O)N2CCC(F)(C(=O)NC/C=C/S(C)(=O)=O)CC2)cn1` [Compound 188, (E)-1-((4-(2-chlorophenyl)-6-methoxypyridin-3-yl)sulfonyl)-4-fluoro-N-(3-(methylsulfonyl)allyl)piperidine-4-carboxamide] it was 189 nM; in that of `COc1cccc(-c2cc(Br)ccc2S(=O)(=O)N2CCC(F)(C(=O)NC/C=C/S(C)(=O)=O)CC2)c1` [Compound 63, (E)-1-((5-bromo-3′-methoxy-[1,1′-biphenyl]-2-yl)sulfonyl)-4-fluoro-N-(3-(methylsulfonyl)allyl)piperidine-4-carboxamide], 360 nM.

On to `C[C@H](/C=C\S(C)(=O)=O)NC(=O)C1(F)CCN(S(=O)(=O)c2cnc(O)cc2-c2ccccc2Cl)CC1` [Compound 276, (R,Z)-1-((4-(2-chlorophenyl)-6-hydroxypyridin-3-yl)sulfonyl)-4-fluoro-N-(4-(methylsulfonyl)but-3-en-2-yl)piperidine-4-carboxamide], for which the IC50 against PIK3CA_C242 turned out to be 570 nM. On the same count and under the same terms, in the case of `CN(C)c1ccc(S(=O)(=O)N2CCC(F)(C(=O)NC/C=C/S(C)(=O)=O)CC2)c(-c2ccccc2Cl)c1` [Compound 95, (E)-1-((2′-chloro-5-(dimethylamino)-[1,1′-biphenyl]-2-yl)sulfonyl)-4-fluoro-N-(3-(methylsulfonyl)allyl)piperidine-4-carboxamide] it was 100 nM; in that of `CC#Cc1ccc(S(=O)(=O)N2CCC(F)(C(=O)N[C@H](C)/C=C\S(C)(=O)=O)CC2)c(-c2ccccc2Cl)c1` [Compound 131, (R,Z)-1-((2′-chloro-5-(prop-1-yn-1-yl)-[1,1′-biphenyl]-2-yl)sulfonyl)-4-fluoro-N-(4-(methylsulfonyl)but-3-en-2-yl)piperidine-4-carboxamide], 209 nM.

With `COc1ccc(S(=O)(=O)N2CCC(F)(C(=O)N3CC(/C=C\S(C)(=O)=O)C3)CC2)c(-c2ccccc2Cl)c1` [Compound 230, (Z)-(1-((2′-chloro-5-methoxy-[1,1′-biphenyl]-2-yl)sulfonyl)-4-fluoropiperidin-4-yl)(3-(2-(methylsulfonyl)vinyl)azetidin-1-yl)methanone], the IC50 against PIK3CA_C242 is 140 nM. On the same count and under the same terms, for `COc1ccc(S(=O)(=O)N2CCC(F)(C(=O)N[C@@H](C)/C=C\S(C)(=O)=O)CC2)c(-c2ccccc2C)c1` [Compound 12, (S,Z)-4-fluoro-1-((5-methoxy-2′-methyl-[1,1′-biphenyl]-2-yl)sulfonyl)-N-(4-(methylsulfonyl)but-3-en-2-yl)piperidine-4-carboxamide] the value was 66 nM; for `COc1ccc(S(=O)(=O)N2CCC(F)(C(=O)N[C@@H](C)/C=C\S(C)(=O)=O)CC2)c(-c2ccccc2Cl)c1` [Compound 11, (S,Z)-1-((2′-chloro-5-methoxy-[1,1′-biphenyl]-2-yl)sulfonyl)-4-fluoro-N-(4-(methylsulfonyl)but-3-en-2-yl)piperidine-4-carboxamide], 70.1 nM; for `C[C@H](/C=C\S(C)(=O)=O)NC(=O)C1(F)CCN(S(=O)(=O)c2ccc(O)cc2-c2ccccc2Cl)CC1` [Compound 104, (R,Z)-1-((2′-chloro-5-hydroxy-[1,1′-biphenyl]-2-yl)sulfonyl)-4-fluoro-N-(4-(methylsulfonyl)but-3-en-2-yl)piperidine-4-carboxamide], 620 nM. The same measure, in the same setting: in the case of `C[C@@H](/C=C\S(C)(=O)=O)NC(=O)C1(F)CCN(S(=O)(=O)c2ccc(Cl)cc2-c2cccc(OCc3ccccc3)c2)CC1` [Compound 268, (S,Z)-1-((3′-(benzyloxy)-5-chloro-[1,1′-biphenyl]-2-yl)sulfonyl)-4-fluoro-N-(4-(methylsulfonyl)but-3-en-2-yl)piperidine-4-carboxamide] it was 356 nM; in that of `N#C/C=C/CNC(=O)C1(F)CCN(S(=O)(=O)c2ccc(Cl)cc2-c2ccccc2Cl)CC1` [Compound 69, (E)-N-(3-cyanoallyl)-1-((2′,5-dichloro-[1,1′-biphenyl]-2-yl)sulfonyl)-4-fluoropiperidine-4-carboxamide], 520 nM.

The compound `COc1cccc(-c2cc(Br)ccc2S(=O)(=O)N2CCC(F)(C(=O)N[C@@H](C)/C=C\S(C)(=O)=O)CC2)c1` [Compound 61, (S,Z)-1-((5-bromo-3′-methoxy-[1,1′-biphenyl]-2-yl)sulfonyl)-4-fluoro-N-(4-(methylsulfonyl)but-3-en-2-yl)piperidine-4-carboxamide] gave an IC50 on PIK3CA_C242 of 66.7 nM. The compound `CS(=O)(=O)/C=C/CNC(=O)C1(F)CCN(S(=O)(=O)c2ccc(Cl)cc2-c2ccccc2Cl)CC1` [Compound 40, (E)-1-((2′,5-dichloro-[1,1′-biphenyl]-2-yl)sulfonyl)-4-fluoro-N-(3-(methylsulfonyl)allyl)piperidine-4-carboxamide] yielded an IC50 against PIK3CA_C242 of 210 nM. At PIK3CA_C242, `COc1cccc(-c2cc(Cl)ccc2S(=O)(=O)N2CCC(F)(C(=O)N[C@H](C)/C=C/S(C)(=O)=O)CC2)c1` [Compound 80, (R,E)-1-((5-chloro-3′-methoxy-[1,1′-biphenyl]-2-yl)sulfonyl)-4-fluoro-N-(4-(methylsulfonyl)but-3-en-2-yl)piperidine-4-carboxamide] showed an IC50 of 510 nM. `C[C@H](/C=C\S(C)(=O)=O)NC(=O)C1(F)CCN(S(=O)(=O)c2ccc(C3CCC3)cc2-c2ccccc2Cl)CC1` [Compound 98, (R,Z)-1-((2′-chloro-5-cyclobutyl-[1,1′-biphenyl]-2-yl)sulfonyl)-4-fluoro-N-(4-(methylsulfonyl)but-3-en-2-yl)piperidine-4-carboxamide] yielded an IC50 against PIK3CA_C242 of 520 nM.

`CN(C)c1ccc(S(=O)(=O)N2CCC(F)(C(=O)NC/C=C/C#N)CC2)c(-c2ccccc2Cl)c1` [Compound 97, (E)-1-((2′-chloro-5-(dimethylamino)-[1,1′-biphenyl]-2-yl)sulfonyl)-N-(3-cyanoallyl)-4-fluoropiperidine-4-carboxamide]: the IC50 on PIK3CA_C242 is 370 nM.

On to `CC(C)Oc1ccc(S(=O)(=O)N2CCC(F)(C(=O)N[C@H](C)/C=C\S(C)(=O)=O)CC2)c(-c2ccccc2Cl)c1` [Compound 105, (R,Z)-1-((2′-chloro-5-isopropoxy-[1,1′-biphenyl]-2-yl)sulfonyl)-4-fluoro-N-(4-(methylsulfonyl)but-3-en-2-yl)piperidine-4-carboxamide], for which, on PIK3CA_C242, the IC50 turned out to be 780 nM. Still for that read-out and setting: in the case of `C[C@@H](/C=C\S(C)(=O)=O)NC(=O)C1(F)CCN(S(=O)(=O)c2ccc(Cl)cc2-c2ccccc2)CC1` [Compound 2, (S,Z)-1-((5-chloro-[1,1′-biphenyl]-2-yl)sulfonyl)-4-fluoro-N-(4-(methylsulfonyl)but-3-en-2-yl)piperidine-4-carboxamide] it was 88.5 nM.

With `C[C@H](/C=C\S(C)(=O)=O)NC(=O)C1(F)CCN(C(=O)[C@H]2CN(C3CC3)C[C@H]2c2ccccc2Cl)CC1` [Compound 304, 1-((3R,4R)-4-(2-chlorophenyl)-1-cyclopropylpyrrolidine-3-carbonyl)-4-fluoro-N-((R,Z)-4-(methylsulfonyl)but-3-en-2-yl)piperidine-4-carboxamide], the IC50 on PIK3CA stood at 740 nM.

Turning to `Cc1ccc(-c2cc(Br)ccc2S(=O)(=O)N2CCC(F)(C(=O)N[C@H](C)/C=C\S(C)(=O)=O)CC2)c(Cl)c1` [Compound 53, (R,Z)-1-((5-bromo-2′-chloro-4′-methyl-[1,1′-biphenyl]-2-yl)sulfonyl)-4-fluoro-N-(4-(methylsulfonyl)but-3-en-2-yl)piperidine-4-carboxamide], the IC50 on PIK3CA amounted to 960 nM.
